Data published in patent US5599559A, “Calcium channel blocking polypeptide from agelenopsis aperta and therapeutic methods employing it” (priority 1995, dated 1997).
Read-outs that look alike come from different tables or passages of the source.

System: calcium channels
Type: cell-based, rats
Settings: read-out: IC50 for blocking calcium channels, pH 7.4

| Compound | IC50 | IC50 (cerebellar granule cells from 8 day old rats, fura2 fluorescence, 37° C.) |
| --- | --- | --- |
| COc1ccc(CCN(C)CCCC(C#N)(c2ccc(OC)c(OC)c2)C(C)C)cc1OC (centres unmarked) [Verapamil] | 4.8 µM | – |
| H2 N-Glu-Ala-Cys-Ala-Gly-Ala-Tyr-Lys-Ser-Cys-Asp-Lys-Val-Lys-Cys-Cys-His-Asp- Arg-Arg-Cys-Arg-Cys-Asn-lle-Ala-Met-Asp-Asn-Cys-Val-Cys-Lys-Leu-Phe-Tyr-Cys-Glu-Leu-Phe-Gly-Thr-Cys-Asp-Arg-Leu-Lys-Pro [peptide J2] | – | < 0.2 µM |
